The record followed here is patent US11708348B2, “Protease inhibitors for treatment of coronavirus infections” (The Scripps Research Institute, priority 2021, dated 2023).

Bounds are passed on as bounds.

The first test relates to SARS-CoV-2 strain USA-WA1/2020. In words: microbe, parasite or virus in culture. The test is classed as cell-based. The note with it: Severe acute respiratory syndrome coronavirus 2, HeLa-ACE2, 24 h, HeLa-ACE2 cells, SARS-CoV-2 infection, 24 h; class symbols; read-out: EC50, uM (Hela).
On to `CC(C)C[C@H](NC(=O)C(=O)Nc1ccccc1Cc1ccccc1)C(=O)N[C@@H](C[C@@H]1CCNC1=O)C(=O)COc1c(F)c(F)cc(F)c1F` [Compound 57, N1-(2-benzylphenyl)-N2-((S)-4-methyl-1-oxo-1-(((S)-3-oxo-1-((S)-2-oxopyrrolidin-3-yl)-4-(2,3,5,6-tetrafluorophenoxy)butan-2-yl)amino)pentan-2-yl)oxalamide], for which the EC50 was in the range of 0.2 to 0.5 µM.

`C=CC[C@H](NC(=O)C(=O)Nc1ccccc1)C(=O)N[C@@H](C[C@@H]1CCNC1=O)C(=O)COc1c(F)c(F)cc(F)c1F` [Compound 58, N1-((S)-1-oxo-1-(((S)-3-oxo-1-((S)-2-oxopyrrolidin-3-yl)-4-(2,3,5,6-tetrafluorophenoxy)butan-2-yl)amino)pent-4-en-2-yl)-N2-phenyloxalamide]: the half-maximal effective concentration (EC50) was in the range of 0.2 to 0.5 µM.

For `CC(C)C[C@H](NC(=O)C(=O)NCc1cc(Cl)ccc1Cl)C(=O)N[C@@H](C[C@@H]1CCNC1=O)C(=O)COc1c(F)c(F)cc(F)c1F` [Compound 59, Nl-(2,5-dichlorobenzyl)-N2-((S)-4-methyl-1-oxo-1-(((S)-3-oxo-1-((S)-2-oxopyrrolidin-3-yl)-4-(2,3,5,6-tetrafluorophenoxy)butan-2-yl)amino)pentan-2-yl)oxalamide], the concentration giving a half-maximal response (EC50) is 0.2 to 0.5 µM.

In the case of `CC(C)C[C@H](NC(=O)/C=C/c1ccccc1F)C(=O)N[C@@H](C[C@@H]1CCNC1=O)C(=O)COc1c(F)c(F)cc(F)c1F` [Compound 60, (S)-2-((E)-3-(2-fluorophenyl)acrylamido)-4-methyl-N-((S)-3-oxo-1-((S)-2-oxopyrrolidin-3-yl)-4-(2,3,5,6-tetrafluorophenoxy)butan-2-yl)pentanamide], the EC50 is 0.05 to 0.2 µM.

For `O=C(Nc1ccccc1F)C(=O)N[C@@H](CC1CCCCC1)C(=O)N[C@@H](C[C@@H]1CCNC1=O)C(=O)COc1c(F)c(F)cc(F)c1F` [Compound 61, N1-((S)-3-cyclohexyl-1-oxo-1-(((S)-3-oxo-1-((S)-2-oxopyrrolidin-3-yl)-4-(2,3,5,6-tetrafluorophenoxy)butan-2-yl)amino)propan-2-yl)-N2-(2-fluorophenyl)oxalamide], the concentration giving a half-maximal response (EC50) was less than 0.05 µM.

For the compound `CC(C)C[C@H](NC(=O)C(=O)Nc1ccccc1OC(F)F)C(=O)N[C@@H](C[C@@H]1CCNC1=O)C(=O)COc1c(F)c(F)cc(F)c1F` [Compound 62, N1-(2-(difluoromethoxy)-phenyl)-N2-((S)-4-methyl-1-oxo-1-(((S)-3-oxo-1-((S)-2-oxopyrrolidin-3-yl)-4-(2,3,5,6-tetrafluorophenoxy)butan-2-yl)amino)pentan-2-yl)oxalamide], the EC50 is less than 0.05 µM.

Regarding `CCc1ccccc1NC(=O)C(=O)N[C@@H](CC(C)C)C(=O)N[C@@H](C[C@@H]1CCNC1=O)C(=O)COc1c(F)c(F)cc(F)c1F` [Compound 63, N1-(2-ethylphenyl)-N2-((S)-4-methyl-1-oxo-1-(((S)-3-oxo-1-((S)-2-oxopyrrolidin-3-yl)-4-(2,3,5,6-tetrafluorophenoxy)butan-2-yl)amino)pentan-2-yl)oxalamide], the EC50 is less than 0.05 µM.

For `Cc1cccc(C)c1NC(=O)C(=O)N[C@@H](CC(C)C)C(=O)N[C@@H](C[C@@H]1CCNC1=O)C(=O)COc1c(F)c(F)cc(F)c1F` [Compound 64, N1-(2,6-dimethylphenyl)-N2-((S)-4-methyl-1-oxo-1-(((S)-3-oxo-1-((S)-2-oxopyrrolidin-3-yl)-4-(2,3,5,6-tetrafluorophenoxy)butan-2-yl)amino)pentan-2-yl)oxalamide], the EC50 is less than 0.05 µM.

In the case of `Cc1cccc(NC(=O)C(=O)N[C@@H](CC(C)C)C(=O)N[C@@H](C[C@@H]2CCNC2=O)C(=O)COc2c(F)c(F)cc(F)c2F)c1C` [Compound 65, N1-(2,3-dimethylphenyl)-N2-((S)-4-methyl-1-oxo-1-(((S)-3-oxo-1-((S)-2-oxopyrrolidin-3-yl)-4-(2,3,5,6-tetrafluorophenoxy)butan-2-yl)amino)pentan-2-yl)oxalamide], the EC50 was less than 0.05 µM.

Regarding `CC(C)C[C@H](NC(=O)/C=C/c1ccccc1)C(=O)N[C@@H](C[C@@H]1CCNC1=O)C(=O)COc1c(F)c(F)cc(F)c1F` [Compound 66, (S)-2-cinnamamido-4-methyl-N-((S)-3-oxo-1-((S)-2-oxopyrrolidin-3-yl)-4-(2,3,5,6-tetrafluorophenoxy)butan-2-yl)pentanamide], the EC50 was in the range of 0.05 to 0.2 µM.

For the compound `CC(C)C[C@H](NC(=O)c1cc(-c2ccccc2F)on1)C(=O)N[C@@H](C[C@@H]1CCNC1=O)C(=O)COc1c(F)c(F)cc(F)c1F` [Compound 67, 5-(2-fluorophenyl)-N-((S)-4-methyl-1-oxo-1-(((S)-3-oxo-1-((S)-2-oxopyrrolidin-3-yl)-4-(2,3,5,6-tetrafluorophenoxy)butan-2-yl)amino)pentan-2-yl)isoxazole-3-carboxamide], the EC50 is 0.2 to 0.5 µM.

With `Cc1ccc(NC(=O)C(=O)N[C@@H](CC(C)C)C(=O)N[C@@H](C[C@@H]2CCNC2=O)C(=O)COc2c(F)c(F)cc(F)c2F)c(F)c1` [Compound 68, N1-(2-fluoro-4-methylphenyl)-N2-((S)-4-methyl-1-oxo-1-(((S)-3-oxo-1-((S)-2-oxopyrrolidin-3-yl)-4-(2,3,5,6-tetrafluorophenoxy)butan-2-yl)amino)pentan-2-yl)oxalamide], the EC50 was less than 0.05 µM.

In the case of `CC(C)C[C@H](NC(=O)C(=O)NC1CCCCC1)C(=O)N[C@@H](C[C@@H]1CCNC1=O)C(=O)COc1c(F)c(F)cc(F)c1F` [Compound 69, N1-cyclohexyl-N2-((S)-4-methyl-1-oxo-1-(((S)-3-oxo-1-((S)-2-oxopyrrolidin-3-yl)-4-(2,3,5,6-tetra-fluorophenoxy)butan-2-yl)amino)pentan-2-yl)oxalamide], the EC50 lay in the range of 0.05 to 0.2 µM.

On to `CC(C)C[C@H](NC(=O)c1cc(-c2ccccc2)on1)C(=O)N[C@@H](C[C@@H]1CCNC1=O)C(=O)COc1c(F)c(F)cc(F)c1F` [Compound 70, N-((S)-4-methyl-1-oxo-1-(((S)-3-oxo-1-((S)-2-oxopyrrolidin-3-yl)-4-(2,3,5,6-tetrafluoro-phenoxy)butan-2-yl)amino)pentan-2-yl)-5-phenylisoxazole-3-carboxamide], for which the EC50 is 0.2 to 0.5 µM.

Regarding `CC(C)C[C@H](NC(=O)C(=O)Nc1cccc(F)c1F)C(=O)N[C@@H](C[C@@H]1CCNC1=O)C(=O)COc1c(F)c(F)cc(F)c1F` [Compound 71, N1-(2,3-difluorophenyl)-N2-((S)-4-methyl-1-oxo-1-(((S)-3-oxo-1-((S)-2-oxopyrrolidin-3-yl)-4-(2,3,5,6-tetrafluorophenoxy)butan-2-yl)amino)pentan-2-yl)oxalamide], the EC50 was in the range of 0.05 to 0.2 µM.

For the compound `CC(C)C[C@H](NC(=O)C(=O)Nc1cc(F)ccc1F)C(=O)N[C@@H](C[C@@H]1CCNC1=O)C(=O)COc1c(F)c(F)cc(F)c1F` [Compound 72, Nl-(2,5-difluorophenyl)-N2-((S)-4-methyl-1-oxo-1-(((S)-3-oxo-1-((S)-2-oxopyrrolidin-3-yl)-4-(2,3,5,6-tetrafluorophenoxy)butan-2-yl)amino)pentan-2-yl)oxalamide], the EC50 was in the range of 0.05 to 0.2 µM.

Still in this test, the particulars now being: Severe acute respiratory syndrome coronavirus 2, HeLa-ACE2, 24 h; read-out: EC50, uM (Hela).
Take `CC(C)C[C@H](NC(=O)C(=O)Nc1ccccc1)C(=O)N[C@@H](C[C@@H]1CCNC1=O)C(=O)COP(=O)(c1ccccc1)c1ccccc1` [Compound 73, (S)-3-((S)-4-methyl-2-(2-oxo-2-(phenylamino)acetamido)-pentanamido)-2-oxo-4-((S)-2-oxopyrrolidin-3-yl)butyl-diphenylphosphinate]: the EC50 was in the range of 0.05 to 0.2 µM.

By EC50 is commonly meant the midpoint of the concentration-response curve.
